“Also recorded” adds a separate entry of the source.
Legend:
HOP92 cells = test: Concomitant combination with everolimus (Chou & Talalay); type: cell-based; settings: 48 h concomitant
Experimental: (§1) Five established NSCLC cell lines, HOP62, HOP92, A549, H2228, and H3122 harboring different oncogenic mutations for KRAS, LKB1, TP53 and ALK (FIG. 19) were exposed to increasing doses of compound (1-1) (OncoEthix SA, Switzerland) for 72 h and cell proliferation was evaluated by MTT assays. Results represent the mean±95% CI of at least 3 independent experiments performed in triplicate. Protein levels were analyzed by Western blot using commercial antibodies. For cell cycle analysis cells were stained with PI and analyzed using a FACScan flow cytometer after 24 h of treatment. RT-PCR was performed using Fast SYBR Green Master Mix on a StepOnePlus Real-Time PCR System. Results represent the mean±SD of at least 2 independent experiments, where *p<0.05 versus control cells (0.1% DMSO), employing Anova followed by Dunnett's Multiple Comparison Test. Concomitant compound (1-1) combination studies were performed in cell lines exposed for 48 h to increasing doses of compound (1-1) alone or in combination with everolimus or crizotinib, and assessed using the Chou & Talalay method. Combination Index (CI) was determined by median effect plot analysis using CalcuSyn software. CI<1 synergy, CI=1 additivity and CI>1 antagonist effects. Results represent the median and range of 3 independent experiments performed in triplicate.

A549 cells [1] = test: as above; type: cell-based; settings: 48 h concomitant
Experimental: as §1

H2228 cells [2] = test: as above; type: cell-based; settings: 48 h concomitant
Experimental: as §1

HOP62 cells = test: as above; type: cell-based; settings: 48 h concomitant
Experimental: as §1

H3122 tumor = H3122 tumor growth in nude mice; type: in vivo, male athymic NMRI nude mice; settings: gavage, continuous
Experimental: 5.10^6 H3122 cells were injected in the flank of male athymic NMRI nude mice, and mice were randomized to 3 groups (8 mice/group) when tumor volume reach 100 mm^3; vehicle (PBS, once daily, oral continuous), Compound (1-1) (50 mg/kg/bidaily, gavage, continuous), or crizotinib (25 mg/kg/daily, gavage, continuous).

H3122 cells = test: MTT cell viability/proliferation assay, 72 h; type: cell-based; settings: Homo sapiens, NCI-H3122, H3122 cells (EML4-ALK-positive), 72-h exposure
Experimental: (§2) Five established NSCLC cell lines (i.e. H2228, H3122, A549, HOP62 and HOP92) were exposed to increasing doses of compound (1-1) (OncoEthix SA, Switzerland). Effect on cell viability was determined by the MTT assay after 72 h exposure. The growth inhibition (GI) 50% values were determined by GraphPad Prism 5.0 software. And protein levels were analyzed by Western Blot using commercial antibodies. RNA was extracted with the Qiagen RNAEasy kit and reverse-transcribed using the Superscript First-Strand Synthesis System for RT-PCR kit following manufacturer's instructions. RT-PCR was performed using Fast SYBR Green Master Mix on a StepOnePlus Real-Time PCR System.
as §1

A549 cells [3] = test: MTT cell viability/proliferation assay, 72 h; type: cell-based
Experimental: as §2, §1

H2228 cells [4] = test: MTT cell viability/proliferation assay, 72 h; type: cell-based; settings: Homo sapiens, NCI-H2228, H2228 cells (EML4-ALK-positive), 72-h exposure
Experimental: as §2, §1

C-MYC = C-MYC protein and mRNA levels in NSCLC cell lines (Western blot, RT-PCR); type: cell-based; settings: NSCLC cell lines (Example 7)
Experimental: as §2

[5] = test system: NSCLC cell lines HOP62, HOP92, A549, H2228, H3122; test: MTT proliferation assay in NSCLC cell line panel; type: cell-based; settings: five NSCLC cell lines
Experimental: as §1

NSCLC cells = test: Cell cycle analysis (PI staining, flow cytometer); type: cell-based; settings: 24 h exposure; dihydrate
Experimental: as §1

STAT3 = test: Cell signaling pathways assessment (Western blot); type: cell-based; settings: down-regulation after 24 h and up to 72 h exposure
Experimental: as §2

[6] = test system: N-MYC mRNA in H3122 cells; test: N-MYC mRNA levels in H3122 cells (RT-PCR); type: cell-based
Experimental: as §2
Five established NSCLC cell lines, HOP62, HOP92, A549, H2228, and H3122 harboring different oncogenic mutations for KRAS, LKB1, TP53 and ALK (FIG. 19) were exposed to increasing doses of compound (1-1) (OncoEthix SA, Switzerland) for 72 h and cell proliferation was evaluated by MTT assays. […] Protein levels were analyzed by Western blot using commercial antibodies. For cell cycle analysis cells were stained with PI and analyzed using a FACScan flow cytometer after 24 h of treatment. […] Concomitant compound (1-1) combination studies were performed in cell lines exposed for 48 h to increasing doses of compound (1-1) alone or in combination with everolimus or crizotinib, and assessed using the Chou & Talalay method. […]

H2228 cells [7] = test: Concomitant combination with crizotinib (Chou & Talalay); type: cell-based; settings: combined with crizotinib, 48 h concomitant exposure, CI<1 synergy, CI=1 additivity, CI>1 antagonist, called additive
Experimental: as §1

C-MYC in HOP92 cells = test: C-MYC mRNA and protein levels in HOP92 cells; type: cell-based; settings: 500 nM, after 4 hours, maintained after 24 hours
Experimental: as §1

[8] = test system: N-MYC mRNA in HOP62 cells; test: N-MYC mRNA levels in HOP62 cells (RT-PCR); type: cell-based; settings: 500 nM, after 4 hours, maintained after 24 hours
Experimental: as §1

| Structure (SMILES) | combination effect with everolimus (HOP92 cells) | combination effect with everolimus (A549 cells [1]) | combination effect with everolimus (H2228 cells [2]) | combination effect with everolimus (HOP62 cells) | tumor growth in H3122 tumor bearing-mice (H3122 tumor; 50 mg/kg/bidaily, vs vehicle, dihydrate) | GI50 (H3122 cells) [nM] | effects in A549 cells (A549 cells [3]; A549 cells with concurrent KRAS and LKB1 mutations) | GI50 (A549 cells [3]; Homo sapiens, A549, EML4-ALK-negative (A49) cell line, 72 h exposure, MTT) [nM] | GI50 (H2228 cells [4]) [nM] | C-MYC protein and mRNA levels (C-MYC) | GI50 ([5]; 72 h-exposure, read-out: GI50 values across the cell line panel) [nM] | cytostatic effects in NSCLC cell lines ([5]; 72 h) | percentage of cells in S phase (NSCLC cells) | STAT3 regulation (STAT3) | N-MYC mRNA levels ([6]; EML4-ALK-positive H3122 cells (Example 7)) | N-MYC mRNA levels ([6]; H3122 cells, 500 nM, after 4 hours, maintained after 24 hours) | Combination Index (CI) (H2228 cells [7]) | C-MYC mRNA and protein levels (C-MYC in HOP92 cells) | N-MYC mRNA levels [8] | tumor growth in H3122 tumor bearing-mice (H3122 tumor; 25 mg/kg/daily) |
| --- | --- | --- | --- | --- | --- | --- | --- | --- | --- | --- | --- | --- | --- | --- | --- | --- | --- | --- | --- | --- |
| Cc1sc2c(c1C)C(c1ccc(Cl)cc1)=N[C@@H](CC(=O)Nc1ccc(O)cc1)c1nnc(C)n1-2 [Compound (1-1), 2-[(6S)-4-(4-chlorophenyl)-2,3,9-trimethyl-6H-thienol[3,2-f]-[1,2,4]triazolo[4,3-a][1,4]diazepin-6-yl]-N-(4-hydroxyphenyl)acetamide dihydrate] | additive/synergistic effects | additive/synergistic effects | additive/synergistic effects | additive/synergistic effects | inhibited tumor growth to a similar extent as crizotinib; also recorded: slowed tumor progression | 627 | abrogate compound (1-1) effects | 432 | 629 | not altered | 100 to 700 | cytostatic effects in 4 out of 5 NSCLC cell lines | reduction in the percentage of cells in S phase; also recorded: reduction of the S phase cell fraction | transient upregulation of STATS with a subsequent down-regulation | down-regulation | rapid downregulation | 0.9 | rapid downregulation | rapid downregulation | – |
| C[C@@H](Oc1cc(-c2cnn(C3CCNCC3)c2)cnc1N)c1c(Cl)ccc(F)c1Cl [crizotinib, reference compound] | – | – | – | – | – | – | – | – | – | – | – | – | – | – | – | – | – | – | – | inhibited tumor growth to a similar extent |
